Values of other authors, collected in patent US20070065511A1, “Controlled delivery creatine formulations and method of using the same” (priority 2004, published 2007).
Where two headings read alike, the source gives them in different places.

Legend:
[1] = ingestion of 20 to 30 g per day for several days

Compound	SC/fibre, time effect from baseline (satellite cell (SC); week 4 of supplementation and resistance training) [%]	SC/fibre, time effect from baseline (satellite cell (SC); week 8 of supplementation and resistance training) [%]	SC/fibre compared to baseline (satellite cell (SC); week 16)	increase in human skeletal muscle total creatine content [1]
CN(CC(=O)O)C(=N)N [CRE, creatine]	111	93	no difference	–
CN(CC(=O)O)C(=N)N.O [creatine monohydrate]	–	–	–	greater than 20%
